Patent US5380745A, “Medicinal composition” (Meiiji Seika Kaisha, Ltd., priority 1991, dated 1995)
Like-named read-outs stand apart in the source and are kept apart here.

Experiments:
[1] = PF1022 substance, in words, cited from earlier work
[2] = Water solubility of PF1022 substance (elution into buffer, HPLC); assay type: physicochemical; conditions: aqueous buffer, 40 °C, 50 mg PF1022 substance in 50 ml, read-out: Concentration of PF1022 substance
Experimental: The compositions of Examples 1 to 9 and PF1022 substance alone, employed as a control, were tested. Each composition was weighed in a 100 ml-Erlenmeyer flask, in an amount corresponding to 50 mg of PF1022 substance and 50 ml of McDougall buffer or Clark Lubs buffer was added thereto. McDougall buffer is prepared by dissolving 7.43 g of sodium hydrogencarbonate, 7.0 g of disodium phosphate 12-hydrate, 0.34 g of sodium chloride, 0.43 g of potassium chloride, 0.10 g of magnesium chloride hexahydrate and 0.05 g of calcium chloride in 1,000 ml of water and saturating the mixture with carbon dioxide gas (pH 6.8). Clark Lubs buffer is prepared by adding 50 ml of 0.2N potassium chloride and 10.6 ml of 0.2N hydrochloric acid to 139.4 ml of water (pH 2.0). The mixture was shaken in a thermostat at 40 °±0.5° C. at a vibrational amplitude of 4 cm at 60 rpm to figure eight. Sampling was made with the lapse of time and the amount of the eluate was determined by high performance liquid chromatography.

[3] = tested on: parasites in digestive tract of unigastric animals; conditions: used alone; unigastric animals such as fowl, dog, cat and swine; cited from earlier work
[4] = tested on: cattle nematodes in the digestive tract; experiment: Anthelmintic effect on cattle nematodes in the digestive tract (EPG); assay type: in vivo; conditions: oral 25 mg PF1022 substance/kg/day for two days
Experimental: (§1) The medicinal composition of the present invention was administered to animals in an amount corresponding to a definite amount of PF1022 substance. The whole feces was collected everyday and the number of parasitic eggs per gram of the feces (EPG) were counted. Two weeks after the initiation of the administration, each animal was dissected and the number of parasites remaining in the intestine were counted.
(§2) The medicinal composition obtained in Example 1 was orally administered in a dose as corresponding to 25 mg of PF1022 substance/kg/day for two days. As a control, PF1022 substance alone was administered in the same manner as those described above. […] Each of the medicinal composition as shown in Table 4 was orally administered in a dose corresponding to 5 mg of PF1022 substance/kg/day for two days. As a control, PF1022 substance alone was orally administered in a dose of 25 mg/kg/day for two days.

[5] = tested on: sheep nematodes in the digestive tract; experiment: Anthelmintic effect on sheep nematodes in the digestive tract (EPG); assay type: in vivo; conditions: PF1022 substance alone oral 25 mg/kg/day for two days
Experimental: as §1, §2

parasites = conditions: rumenal animals such as cattle, sheep and goat; cited from earlier work

In the case of CC(C)CC1C(=O)OC(Cc2ccccc2)C(=O)N(C)C(CC(C)C)C(=O)OC(C)C(=O)N(C)C(CC(C)C)C(=O)OC(Cc2ccccc2)C(=O)N(C)C(CC(C)C)C(=O)OC(C)C(=O)N1C (stereo not shown) [PF1022 substance], the solubility in water [1] is listed as “extremely poor solubility in water”, the solubility in water ([1]; listed as PF1022 Substance) is listed as “practically insoluble or hardly dispersible in water” and the solubility at 1 h ([2]; Clark Lubs buffer (pH 2.0)) is listed as under 1 µg/mL. For the same compound, the solubility at 24 h ([2]; Clark Lubs buffer (pH 2.0)) was under 1 µg/mL, the solubility at 1 h ([2]; McDougall buffer (pH 6.8)) was under 1 µg/mL and the solubility at 24 h ([2]; McDougall buffer (pH 6.8)) was under 1 µg/mL. For the same compound, the anthelmintic effect [3] was “particularly marked anthelmintic effect”, the “Number of eggs per gram of feces (EPG)” value ([4]; day 0) was 112 EPG and the “Number of eggs per gram of feces (EPG)” value ([4]; day 1) was 80 EPG. The “Number of eggs per gram of feces (EPG)” value ([4]; day 3) was 34 EPG, the “Number of eggs per gram of feces (EPG)” value ([4]; day 5) was 41 EPG and the “Number of eggs per gram of feces (EPG)” value ([4]; day 7) was 49 EPG. For the same compound, the “Number of eggs per gram of feces (EPG)” value ([4]; day 10) was 36 EPG, the “Number of eggs per gram of feces (EPG)” value ([4]; day 14) was 40 EPG and the “Number of eggs per gram of feces (EPG)” value ([5]; day 0) was 2997 EPG. For the same compound, the “Number of eggs per gram of feces (EPG)” value ([5]; day 1) was 2313 EPG, the “Number of eggs per gram of feces (EPG)” value ([5]; day 3) was 13 EPG and the “Number of eggs per gram of feces (EPG)” value ([5]; day 5) was 9 EPG. For the same compound, the “Number of eggs per gram of feces (EPG)” value ([5]; day 7) was 32 EPG, the “Number of eggs per gram of feces (EPG)” value ([5]; day 10) was 12 EPG and the “Number of eggs per gram of feces (EPG)” value ([5]; day 14) was 8 EPG. For the same compound, the “dosage required relative to unigastric animals” value (parasites) was 5 to 10 times.
